“Also recorded” adds a separate entry of the source. Where a name gives a salt, the structure may show the parent alone.
Experiments:
[1] = system: GMC101 strain expressing human β-amyloid in muscle; experiment: Alzheimer's disease model: paralysis of GMC101 strain; assay type: in vivo, Caenorhabditis elegans; conditions: for paralysis with age: 20° C., monitored during adulthood
Text: Data display from six independent biological replicates, n≥215.
FIG. 4b illustrates that paralysis of GMC101 Alzheimer's disease model is ameliorate with TS and ES.
Assays performed with normal NGM plates. Data display from three independent biological replicates, n>130.
FIG. 15 illustrates that treatment with Androsterone Sulfate (AS) ameliorates the symptoms of Alzheimer's model in Caenorhabditis elegans. The strain GMC101 expresses the human b-amyloid in muscle cells and generate paralysis with age. […] Data from 5 biological replicates. Paralysis was monitored during adulthood. […] More than 200 nematodes were analyzed. Nematodes were synchronized and assayed at 20° C.

[2] = system: NL5901 strain expressing α-synuclein in muscle cells; assay type: in vivo, Caenorhabditis elegans; conditions: 1 μg/ml
[3] = system: mammalian model with intrahippocampal administration of βA oligomers; conditions: local administration; cited from earlier work
C. elegans = experiment: Longevity (lifespan) assay in C. elegans; assay type: in vivo, Caenorhabditis elegans
Text: Worms were cultivated in UV-killed E. coli.
FIGS. 13c and 13d illustrate that additional biological replicates of longevity curve with sulfated C19 steroid hormones.

daf-2(e1370) = experiment: Development / larval arrest at 25° C. (daf-2 interaction); assay type: in vivo, Caenorhabditis elegans; conditions: for L1 arrest: daf-2(e1370) background
Description: FIG. 5i illustrates example of sul-2(pv17) larvae, Dauer larval arrest of daf-2(e1370) or L1 arrest of daf-2(e1370); sul-2(pv17) and daf-2(e1370); sul-2(gk187) at 25° C. Animals were grown up to L4 at 16° C., then shifted at 25° C., progeny were scored or imaged after 72 hours. Photographs were taken in a Leica scope.
Photographs were taken in a Leica scope. Arrow heads: Dauers, arrows: L1s.

[4] = system: Q40 aggregates (AM141 strain); experiment: Huntington model: polyglutamine (Q40) aggregates; assay type: in vivo, Caenorhabditis elegans; conditions: Q40 background; 1 μg/ml; 5-day old worms
Text: Strains AM140 and AM141 respectively.
In this model, GFP-labelled dopaminergic neurons die due to α-synuclein toxicity. […] We also tested two different strains of Alzheimer's disease (AD) in worms, where immobility is caused by expression of βA protein in muscle cells.

[5] = system: CL2006 strain expressing human β-amyloid in muscle; experiment: Alzheimer's disease model: paralysis with age of CL2006 strain; assay type: in vivo, Caenorhabditis elegans
Text: FIG. 12g illustrates that expression of human β-amyloid in muscle provokes paralysis with age (CL2006 strain) that is ameliorated by STX64 treatment. Log-rank (Mantel-Cox) test, for sul-2 deletion p=0.0027 and STX treatment p=0.007.

[6] = system: wild type mice injected with β-amyloid oligomers in the hippocampus; experiment: Passive avoidance test, acute AD model (intrahippocampal β-amyloid oligomers); assay type: in vivo
Text: FIGS. 3i and 3j illustrate that the effect of intrahippocampal and oral administration of STX64 in the passive avoidance test in wild type mice injected with β-amyloid oligomers in the hippocampus. The number of mice in each group were >5.
FIG. 3p illustrates effect of oral administration with STX64 in more than 15-month-old APP-PS1 mice, and comparation with APP-PS1 and wild type mice older than 15 months in the passive avoidance test. The number of mice in each group were >5. In histological analysis, * represent significant differences between vehicle- and STX64 administrated APP-PS1 mice. […]
As STX64 ameliorated neurodegeneration in C. elegans models, we tested the effect of this drug on cognitive alterations provoked by intrahippocampal βA oligomers infusion, an acute AD mammalian model (FIG. 3i). […] To evaluate the effect of STX64 oral treatment on amyloid pathology in a chronic AD mice model, we assessed the effect of 3-4 weeks of STX64 oral treatment on amyloid deposition in the […] (the cerebral cortex and the hippocampus) of >15-month-old APP-PS1 mice (FIG. 4k). […]

APP-PS1 mice [7] = experiment: β-amyloid deposition in chronic AD model; assay type: in vivo
Description: FIG. 3k illustrates that representative β-amyloid-immunoreactive images assessed in the frontal cortex and the hippocampus of APP-PS1 mice older than 15 months of age after 3-4 weeks of vehicle or STX64 intake (0.005 mg/ml in drink water).
FIGS. 3l-3n illustrate quantification of percentage of β-amyloid area (c), deposition density (d) and average plaque size (e) in the frontal cortex and the hippocampus of >15 months-old APP-PS1 mice after 3-4 weeks of oral administration with STX64 or vehicle. n=4 mice per groups.
FIG. 3o illustrates temporal course of β-amyloid deposition in APP-PS1 mice and the effect of 3-4 weeks STX64 oral treatment on β-amyloid area in the frontal cortex (upper panel) and the hippocampus (lower panel). The number of microphotographs used was more than 3 in all the mice used.
As STX64 ameliorated neurodegeneration in C. elegans models, we tested the effect of this drug on cognitive alterations provoked by intrahippocampal βA oligomers infusion, an acute AD mammalian model (FIG. 3i). […] To evaluate the effect of STX64 oral treatment on amyloid pathology in a chronic AD mice model, we assessed the effect of 3-4 weeks of STX64 oral treatment on amyloid deposition in the […] (the cerebral cortex and the hippocampus) of >15-month-old APP-PS1 mice ([…]). […] We wondered if this histological improvement correlated with amelioration of cognitive behavioral deficit. For that, we compared cognition capacities in APP-PS1 mice older than 15-month-old treated with vehicle or STX64 for 3-4 weeks.

APP-PS1 mice [8] = experiment: Passive avoidance test in chronic AD model; assay type: in vivo; conditions: APP-PS1 mice older than 15 months; 3-4 weeks oral
Text: FIG. 3p illustrates effect of oral administration with STX64 in more than 15-month-old APP-PS1 mice, and comparation with APP-PS1 and wild type mice older than 15 months in the passive avoidance test. The number of mice in each group were >5. In histological analysis, * represent significant differences between vehicle- and STX64 administrated APP-PS1 mice. In behavioral test, * represent significant differences between the short-term and long-term memory sessions (STM and LTM, respectively) and the training session in the same experimental group; and, + represent significant differences between the STM and LTM sessions between each experimental group and β-amyloid group. A symbol, p<0.05, two symbols, p<0.01, and three symbols, p<0.001.
As STX64 ameliorated neurodegeneration in C. elegans models, we tested the effect of this drug on cognitive alterations provoked by intrahippocampal βA oligomers infusion, an acute AD mammalian model (FIG. 3i). […] To evaluate the effect of STX64 oral treatment on amyloid pathology in a chronic AD mice model, we assessed the effect of 3-4 weeks of STX64 oral treatment on amyloid deposition in the […] (the cerebral cortex and the hippocampus) of >15-month-old APP-PS1 mice (FIG. 4k). […] We wondered if this histological improvement correlated with amelioration of cognitive behavioral deficit. […]

[9] = wild type background, hormone 1 μg/ml
[10] = thermodependent paralysis, 1 μg/ml

With `C[C@]12CC[C@@H](OS(=O)(=O)O)C[C@@H]1CC[C@@H]1[C@@H]2CC[C@]2(C)C(=O)CC[C@@H]12` [AS, [(3R,5S,8R,9S,10S,13S,14S)-10,13-Dimethyl-17-oxo-1,2,3,4,5,6,7,8,9,11,12,14,15,16-tetradecahydrocyclopenta[a]phenanthren-3-yl] sulfate] the paralysis with age ([1]; 1 μg/ml) was “reduce this effect” and the paralysis with age ([1]; 5 μg/ml) was “reduce this effect”.

For `C[C@]12CC[C@H](O)CC1=CC[C@@H]1[C@@H]2CC[C@]2(C)C(=O)CC[C@@H]12` [DHEA], the mobility with age [2] was “showed no effect; also recorded: no effect is observed”.

For `CCCCCCCCCCCCCC(=O)NCCc1ccc(OS(N)(=O)=O)cc1` [DU-14], the memory loss [3] is given as “could alleviate memory loss”.

In the case of `C[C@]12CC[C@H]3[C@@H](CCC4=CC(=O)CC[C@@]43C)[C@@H]1CC[C@H]2OS(=O)(=O)O` [ES, N,N-diethylethanamine; [(8R,9S,10R,13S,14S,17R)-10,13-dimethyl-3-oxo-1,2,6,7,8,9,11,12,14,15,16,17-dodecahydrocyclopenta[a]phenanthren-17-yl] hydrogen sulfate], the life span (C. elegans; sul-2(gk187) / sul-2 mutants background, hormone 1 μg/ml) is reported as “did not further increase longevity in sul-2 mutants backgrounds; also recorded: does not further increase in sul-2(gk187)”, the life span (C. elegans; sul-2(pv17) background, hormone 1 μg/ml) is reported as “does not increase further in sul-2(pv17)” and the life span (C. elegans; [9]) is reported as “increases lifespan in wild type background; also recorded: increased in longevity on a wild type background; also recorded: increases life span in a wild type background”. The mobility with age [2] was “improves the mobility”, the paralysis phenotype ([1]; normal NGM plates, 1 μg/ml) was “reduced” and the paralysis phenotype [1, 10] was “ameliorate”. The L1 arrest (daf-2(e1370)) was “increase”.

In the case of `NS(=O)(=O)Oc1ccc2c3c(c(=O)oc2c1)CCCCC3` [STX64], the “lifespan, dependence on daf-36” value (C. elegans; daf-36 background, STX64 1 μg/ml) is reported as “DAF-36 is required for the longevity; also recorded: necessary for the increase of longevity”, the life span (C. elegans; sul-2 (gk187) deletion background, STX64 1 μg/ml, UV-killed E. coli) is reported as “not in sul-2 (gk187) background; also recorded: does not further increase the longevity of sul-2 deletion mutants” and the life span (C. elegans; wild type animals, STX64 1 μg/ml, UV-killed E. coli) is reported as “increases lifespan in wild type animals; also recorded: an increase in longevity”. The life span (C. elegans; wild type, non-UV E. coli) was “increases lifespan of wild type”, the mobility with age [2] was “significantly improved mobility; also recorded: protective effect” and the “number of Q40 aggregates” value [4] was “reduced the number of aggregates; also recorded: Q40 aggregates are reduced”. The paralysis phenotype [1, 10] was “delayed paralysis; also recorded: the paralysis phenotype is ameliorated”, the paralysis with age [5] was “delayed paralysis; also recorded: ameliorated” and the L1 arrest (daf-2(e1370)) was “mainly arrests in L1”. The development (daf-2(e1370); wild type) was “does not affect development of wild type”, the “cognitive deficiencies, passive avoidance test” value (“cognitive deficiencies” for short) ([6]; local (intrahippocampal) administration) was “reverted the cognitive deficiencies” and the “cognitive deficiencies” value ([6]; systemic (oral) administration) was “reverted the cognitive deficiencies”. The βA plaque density (APP-PS1 mice [7]; >15-month-old APP-PS1 mice, 3-4 weeks oral, 0.005 mg/ml in drink water, cortex and hippocampus) was “significant reduction”, the βA plaque size (APP-PS1 mice [7]; >15-month-old APP-PS1 mice, 3-4 weeks oral, cortex) was “significant reduction” and the βA immunoreactive area (APP-PS1 mice [7]; >15-month-old APP-PS1 mice, 3-4 weeks oral, cortex and hippocampus) was “reduced in both tissues”. The “βA deposition versus normal temporal course” value (APP-PS1 mice [7]; >15-month-old treated mice compared to un-treated APP-PS1 mice of 10-12 months) was “reduces βA deposition” and the “cognitive deficiencies” value (APP-PS1 mice [8]) was “completely reverted cognitive deficiencies”.

In the case of `C[C@]12CC[C@H]3[C@@H](CCC4=CC(=O)CC[C@@]43C)[C@@H]1CC[C@@H]2OS(=O)(=O)O` [TS, [(8R,9S,10R,13S,14S,17S)-10,13-dimethyl-3-oxo-1,2,6,7,8,9,11,12,14,15,16,17-dodecahydrocyclopenta[a]phenanthren-17-yl]hydrogen sulfate], the life span (C. elegans; [9]) is reported as “do not affect; also recorded: does not affect longevity”, the mobility with age [2] is reported as “improves the mobility” and the paralysis phenotype ([1]; normal NGM plates, 1 μg/ml) is reported as “reduced”. For the same compound, the paralysis phenotype [1, 10] was “ameliorate” and the L1 arrest (daf-2(e1370)) was “increase”.

With `C[C@]12CC[C@H]3[C@@H](CCC4=CC(=O)CC[C@@]43C)[C@@H]1CC[C@@H]2O` [testosterone] the mobility with age [2] was “showed no effect; also recorded: no effect is observed”.

In the case of dehydroepiandrosterone sulfate [DHEAS], the life span (C. elegans; [9]) is reported as “do not affect; also recorded: does not affect longevity”, the mobility with age [2] is reported as “improves the mobility” and the L1 arrest (daf-2(e1370)) is reported as “increase”.

For pregnenolone sulfate, the mobility with age [2] was “showed no effect; also recorded: no effect is observed”.

Source: US12702673B2, “Sulfated C19 steroid hormones to treat and/or prevent proteotoxicity in protein-aggregation diseases” (U[…] DE OLAVIDE, priority 2020, dated 2026)
